Laboratory results published in publication PMC9680032, “Conformationally Locked Carbocyclic Nucleosides Built on a 4′-Hydroxymethyl-3′-hydroxybicyclo[4.1.0]heptane Template. Stereoselective Synthesis and Antiviral Activity” (The Journal of Organic Chemistry, 2022).
≈ marks a conversion by molar mass, not a printed value.

How the values were obtained:
[1] = system: Human immunodeficiency virus (ROD); test: Antiviral CPE assay, HIV-2 (ROD) in MT-4 cells; assay type: cell-based; settings: for EC50: Human immunodeficiency virus 2, MT4
[2] = system: MT-4 cells (human lymphocytic cell line); test: Cytotoxicity in MT-4 cell cultures (MTS); settings: MT-4 cell cultures, MTS assay
[3] = system: Human immunodeficiency virus (IIIB); test: Antiviral CPE assay, HIV-1 (IIIB) in MT-4 cells; assay type: cell-based, human immunodeficiency virus type 1 (HIV-1); settings: for EC50: Human immunodeficiency virus 1, IIIB, MT4
in vitro [4] = settings: human, Cytotoxixity CC50
[5] = system: Vesicular stomatitis virus; test: microbe, parasite or virus in culture; assay type: cell-based; settings: for EC50: Vesicular stomatitis virus, HEp-2, read-out: Antiviral EC50 Vesicular stomatitis virus
[6] = system: Herpes simplex virus-2 (G); test: microbe, parasite or virus in culture; assay type: cell-based; settings: for EC50: Human alphaherpesvirus 2, HEL, read-out: Antiviral EC50 Herpes simplex virus-2 (G)
[7] = system: Herpes simplex virus-1 (KOS); test: microbe, parasite or virus in culture; assay type: cell-based; settings: for EC50: Human alphaherpesvirus 1, HEL, read-out: Antiviral EC50 Herpes simplex virus-1 (KOS)
Vero cells = test: Cytotoxicity in Vero cell cultures (MTS); assay type: cell-based, African green monkey; settings: MTS assay
Adeno virus-2 = test: organism not typed; assay type: cell-based; settings: for EC50: HEL, read-out: Antiviral EC50 Adeno virus-2
[8] = system: MDCK (Madin-Darby Canine Kidney) cells; settings: dog
HEL cells = settings: human
[9] = system: Influenza A virus A/HK/7/87 (H3N2); test: Antiviral CPE assay, Influenza A (H3N2) in MDCK cells; assay type: cell-based; settings: for EC50: Influenza A virus, H3N2, MDCK
[10] = system: Influenza A virus A/Ned/378/05A (H1N1); test: Antiviral CPE assay, Influenza A (H1N1) in MDCK cells; assay type: cell-based; settings: for EC50: Influenza A virus, H1N1, MDCK
Human Coronavirus (229E) = test: microbe, parasite or virus in culture; assay type: cell-based; settings: for EC50: Human coronavirus 229E, HEL, read-out: Antiviral EC50 Human Coronavirus (229E)
Vaccinia virus = test: microbe, parasite or virus in culture; assay type: cell-based; settings: for EC50: Orthopoxvirus vaccinia, HEL, read-out: Antiviral EC50 Vaccinia virus
[11] = system: Influenza B virus B/Ned/537/05; test: Antiviral CPE assay, Influenza B in MDCK cells; assay type: cell-based; settings: MDCK cell cultures; for EC50: Influenza B virus
[12] = system: Respiratory syncytial virus; test: Antiviral CPE assay, Respiratory syncytial virus in HEp-2 cells; assay type: cell-based; settings: for EC50: human respiratory syncytial virus, HEp-2
Sindbis virus = test: Antiviral CPE assay, Sindbis virus in Vero cells; assay type: cell-based; settings: for EC50: Sindbis virus, Vero
Punta Toro virus = test: Antiviral CPE assay, Punta Toro virus in Vero cells; assay type: cell-based; settings: for EC50: Punta Toro virus, Vero
Coxsackie virus B4 [13] = test: Antiviral CPE assay, Coxsackie virus B4 in Vero cells; assay type: cell-based; settings: for EC50: Enterovirus B, B4, Vero
Coxsackie virus B4 [14] = test: Antiviral CPE assay, Coxsackie virus B4 in HEp-2 cells; assay type: cell-based; settings: for EC50: Enterovirus B, B4, HEp-2
Reo-virus-1 = test: Antiviral CPE assay, Reovirus-1 in Vero cells; assay type: cell-based; settings: for EC50: Vero
Zika virus = test: Antiviral CPE assay, Zika virus in Vero cells; assay type: cell-based; settings: for EC50: Zika virus, Vero
Yellow Fever virus = test: microbe, parasite or virus in culture; assay type: cell-based; settings: for EC50: Yellow fever virus, Vero, read-out: Antiviral EC50 Yellow Fever virus, Vero cell cultures
[15] = system: HEp-2 (Human Epidermoid carcicoma) cells; test: Cytotoxicity in HEp-2 cell cultures (MTS); settings: HEp-2 cell cultures, MTS assay
[16] = Cytotoxicity in Vero cell cultures (MTS); assay type: cell-based, African green monkey; settings: African green monkey, Vero cells (kidney epithelial cells), uninfected, MTS assay, read-out: Cytotoxixity CC50
in vitro [17] = settings: dog
[18] = Cytotoxicity in MT-4 cell cultures (MTS); settings: human, Cytotoxixity CC50, MT-4 cell cultures, MTS assay
[19] = Cytotoxicity in HEp-2 cell cultures (MTS); settings: human

Cc1ccnc2c1NC(=O)c1cccnc1N2C1CC1 [Neviparine, reference compound]
Antiviral EC50 Human immunodeficiency virus (ROD) [1]: > 4 µg/mL
Cytotoxixity CC50 [2]: > 4 µg/mL
Antiviral EC50 Human immunodeficiency virus (IIIB) [3]: 0.075 µg/mL

Nc1ccn([C@@H]2CS[C@H](CO)O2)c(=O)n1 [Lamivudine, reference compound]
EC50 [1]: 2.27 µg/mL (≈ 9.9 µM)
CC50 (in vitro [4]): > 20 µg/mL
EC50 [3]: 0.58 µg/mL (≈ 2.53 µM)

Cc1cn(C2CC(O)C(CO)C3CC32)c(=O)[nH]c1=O (stereo not drawn) [Compound 2, 1-[(1′S,2′S,4′S,5′R,6′R)-4′-Hydroxy-5′-(hydroxymethyl)bicyclo[4.1.0]hept-2′-yl]-5-methylpyrimidine-2,4(1H,3H)-dione]
Antiviral EC50 Vesicular stomatitis virus ([5]; HEp-2 cell cultures): > 50 µg/mL
Antiviral EC50 Herpes simplex virus-2 (G) [6]: > 50 µg/mL
Antiviral EC50 Herpes simplex virus-1 (KOS) [7]: > 50 µg/mL
Cytotoxixity CC50 (Vero cells): > 50 µg/mL
Antiviral EC50 Human immunodeficiency virus (ROD) [1]: > 125 µg/mL
Antiviral EC50 Adeno virus-2 (Adeno virus-2): > 50 µg/mL
Cytotoxixity CC50 [8]: > 50 µg/mL
Cytotoxixity CC50 (HEL cells): > 50 µg/mL
Antiviral EC50 Influenza A virus A/HK/7/87 (H3N2) [9]: > 50 µg/mL
Antiviral EC50 Influenza A virus A/Ned/378/05 (H1N1) [10]: > 50 µg/mL
Cytotoxixity CC50 [2]: > 125 µg/mL
Antiviral EC50 Human Coronavirus (229E) (Human Coronavirus (229E)): > 50 µg/mL
Antiviral EC50 Vaccinia virus (Vaccinia virus; HEL cell cultures): > 50 µg/mL
Antiviral EC50 Influenza B virus B/Ned/537/05 [11]: > 50 µg/mL
Antiviral EC50 Respiratory syncytial virus [12]: > 50 µg/mL
Antiviral EC50 Sindbis virus (Sindbis virus): > 50 µg/mL
Antiviral EC50 Punta Toro virus (Punta Toro virus): > 50 µg/mL
Antiviral EC50 Coxsackie virus B4 (Coxsackie virus B4 [13]): > 50 µg/mL
Antiviral EC50 Coxsackie virus B4 (Coxsackie virus B4 [14]): > 50 µg/mL
Antiviral EC50 Reo-virus-1 (Reo-virus-1): > 50 µg/mL
Antiviral EC50 Zika virus (Zika virus): > 50 µg/mL
Antiviral EC50 Human immunodeficiency virus (IIIB) [3]: > 125 µg/mL
Antiviral EC50 Yellow Fever virus (Yellow Fever virus; Vero cell cultures): > 50 µg/mL
Cytotoxixity CC50 [15]: > 50 µg/mL

NC(=O)c1nnn(C2CC(O)C(CO)C3CC32)c1N (stereo not drawn) [Compound 3b, 5-Amino-1-[(1′S,2′S,4′R,5′R,6′R)-4′-hydroxy-5′-(hydroxymethyl)bicyclo-[4.1.0]hept-2′-yl]-1H-1,2,3-triazole-4-carboxamide]
EC50 [5]: > 50 µg/mL
EC50 [6]: > 50 µg/mL
EC50 [7]: > 50 µg/mL
CC50 [16]: > 50 µg/mL
EC50 [1]: > 125 µg/mL
EC50 (Adeno virus-2): > 50 µg/mL
CC50 (in vitro [17]): > 50 µg/mL
EC50 [9]: > 50 µg/mL
EC50 [10]: > 50 µg/mL
CC50 [18]: > 125 µg/mL
EC50 (Human Coronavirus (229E)): > 50 µg/mL
EC50 (Vaccinia virus): > 50 µg/mL
EC50 [11]: > 50 µg/mL
EC50 [12]: > 50 µg/mL
EC50 (Sindbis virus): > 50 µg/mL
EC50 (Punta Toro virus): > 50 µg/mL
EC50 (Coxsackie virus B4 [13]): > 50 µg/mL
EC50 (Coxsackie virus B4 [14]): > 50 µg/mL
EC50 (Reo-virus-1): > 50 µg/mL
EC50 (Zika virus): > 50 µg/mL
EC50 [3]: > 125 µg/mL
EC50 (Yellow Fever virus): > 50 µg/mL
melting point: 210 to 213 °C
CC50 [19]: > 50 µg/mL

Cc1cn(C2CC(O)C(CO)C3CC32)c(=O)[nH]c1=O (stereo not drawn) [Compound 1a, 1-((1′S,2′S,4′R,5′R,6′R)-4′-Hydroxy-5′-(hydroxymethyl)bicyclo[4.1.0]heptan-2′-yl)-5-methylpyrimidine-2,4(1H,3H)-dione]
EC50 [5]: > 50 µg/mL
EC50 [6]: > 50 µg/mL
EC50 [7]: > 50 µg/mL
CC50 [16]: > 50 µg/mL
EC50 [1]: > 99.1 µg/mL
EC50 (Adeno virus-2): > 50 µg/mL
CC50 (in vitro [17]): > 50 µg/mL
EC50 [9]: > 50 µg/mL
EC50 [10]: > 50 µg/mL
CC50 [18]: 99.1 µg/mL (≈ 372 µM)
EC50 (Human Coronavirus (229E)): > 50 µg/mL
EC50 (Vaccinia virus): > 50 µg/mL
EC50 [11]: > 50 µg/mL
EC50 [12]: > 50 µg/mL
EC50 (Sindbis virus): > 50 µg/mL
EC50 (Punta Toro virus): > 50 µg/mL
EC50 (Coxsackie virus B4 [13]): > 50 µg/mL
EC50 (Coxsackie virus B4 [14]): > 50 µg/mL
EC50 (Reo-virus-1): > 50 µg/mL
EC50 (Zika virus): > 50 µg/mL
EC50 [3]: > 99.1 µg/mL
EC50 (Yellow Fever virus): > 50 µg/mL
melting point: 189 to 191 °C
CC50 [19]: > 50 µg/mL
